Assay results reported in US20250098679A1, “HERBICIDAL PYRIDONE DERIVATIVES” (SYNGENTA CROP PROTECTION AG, priority 2021, published 2025).

Tests used:
Format in all cases: in vivo
Setaria faberi (SETFA) [1] = experiment: Pre-emergence Test, Setaria faberi (SETFA); conditions: 1000 g/ha, evaluated after 13 days
[2] = system: Echinochloa crus-galli (ECHCG); experiment: Post-emergence Test, Echinochloa crus-galli (ECHCG); parameters: key to percentage damage caused to the plant, ECHCG (five-point scale): 5=81-100%, 4=61-80%, 3=41-60%, 2=21-40%, 1=0-20% damage; conditions: evaluated after 13 days
Outline: (§1)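 Sown pots in a glasshouse (24/16 °C day/night, 14 h light, 65% humidity) were sprayed with compound in acetone/water (50:50) with 0.5% Tween 20, at 1000 g/ha unless otherwise stated. Damage was assessed 13 days after spraying and scored 1–5 (5=81-100%, 1=0-20%).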

[3] = system: Amaranthus palmeri (AMAPA); experiment: Pre-emergence Test, Amaranthus palmeri (AMAPA); conditions: 1000 g/ha, evaluated after 13 days
Zea mays (ZEAMX) [4] = experiment: Post-emergence Test, Zea mays (ZEAMX); parameters: key to percentage damage caused to the plant, ZEAMX (five-point scale): 5=81-100%, 4=61-80%, 3=41-60%, 2=21-40%, 1=0-20% damage; conditions: evaluated after 13 days
Outline: as §1

[5] = system: Amaranthus palmeri (AMAPA); experiment: Post-emergence Test, Amaranthus palmeri (AMAPA); parameters: key: 5=81-100%, 4=61-80%, 3=41-60%, 2=21-40%, 1=0-20% damage; conditions: evaluated after 13 days
Outline: as §1

[6] = system: Amaranthus retoflexus (AMARE); experiment: Post-emergence Test, Amaranthus retoflexus (AMARE); parameters: key to percentage damage caused to the plant, AMARE (five-point scale): 5=81-100%, 4=61-80%, 3=41-60%, 2=21-40%, 1=0-20% damage; conditions: evaluated after 13 days
Outline: as §1

[7] = system: Amaranthus retoflexus (AMARE); experiment: Pre-emergence Test, Amaranthus retoflexus (AMARE); conditions: 1000 g/ha, evaluated after 13 days
Zea mays (ZEAMX) [8] = experiment: Pre-emergence Test, Zea mays (ZEAMX); conditions: 1000 g/ha, evaluated after 13 days
[9] = system: Ipomoea hederacea (IPOHE); experiment: Pre-emergence Test, Ipomoea hederacea (IPOHE); conditions: 1000 g/ha, evaluated after 13 days
Setaria faberi (SETFA) [10] = experiment: Post-emergence Test, Setaria faberi (SETFA); parameters: key to percentage damage caused to the plant, SETFA (five-point scale): 5=81-100%, 4=61-80%, 3=41-60%, 2=21-40%, 1=0-20% damage; conditions: evaluated after 13 days
Outline: as §1

[11] = system: Ipomoea hederacea (IPOHE); experiment: Post-emergence Test, Ipomoea hederacea (IPOHE); parameters: key to percentage damage caused to the plant, IPOHE (five-point scale): 5=81-100%, 4=61-80%, 3=41-60%, 2=21-40%, 1=0-20% damage; conditions: evaluated after 13 days
Outline: as §1

[12] = system: Echinochloa crus-galli (ECHCG); experiment: Pre-emergence Test, Echinochloa crus-galli (ECHCG); conditions: 1000 g/ha, evaluated after 13 days

SMILES	Pre-emergence Test SETFA, percentage damage caused to the plant (five-point scale) (Setaria faberi (SETFA) [1])	percentage damage caused to the plant, ECHCG (five-point scale) ([2]; 1000 g/ha)	Pre-emergence Test AMAPA, percentage damage caused to the plant (five-point scale) [3]	percentage damage caused to the plant, ZEAMX (five-point scale) (Zea mays (ZEAMX) [4]; 1000 g/ha)	percentage damage caused to the plant, AMAPA (five-point scale) ([5]; 1000 g/ha)	percentage damage caused to the plant, AMARE (five-point scale) ([6]; 1000 g/ha)	Pre-emergence Test AMARE, percentage damage caused to the plant (five-point scale) [7]	Pre-emergence Test ZEAMX, percentage damage caused to the plant (five-point scale) (Zea mays (ZEAMX) [8])	Pre-emergence Test IPOHE, percentage damage caused to the plant (five-point scale) [9]	percentage damage caused to the plant, SETFA (five-point scale) (Setaria faberi (SETFA) [10]; 1000 g/ha)	percentage damage caused to the plant, IPOHE (five-point scale) ([11]; 1000 g/ha)	Pre-emergence Test ECHCG, percentage damage caused to the plant (five-point scale) [12]	percentage damage caused to the plant, ECHCG (five-point scale) ([2]; 250 g/Ha)	percentage damage caused to the plant, ZEAMX (five-point scale) (Zea mays (ZEAMX) [4]; 250 g/Ha)	percentage damage caused to the plant, AMAPA (five-point scale) ([5]; 250 g/Ha)	percentage damage caused to the plant, AMARE (five-point scale) ([6]; 250 g/Ha)	percentage damage caused to the plant, SETFA (five-point scale) (Setaria faberi (SETFA) [10]; 250 g/Ha)	percentage damage caused to the plant, IPOHE (five-point scale) ([11]; 250 g/Ha)
CCOC(=O)c1c(-c2ccc(Cl)c(Cl)c2)n(CC)c(Cn2ncc3cnc(Cl)cc32)cc1=O [Compound 52, ethyl 6-[(6-chloropyrazolo[4,3-c]pyridin-1-yl)methyl]-2-(3,4-dichlorophenyl)-1-ethyl-4-oxo-pyridine-3-carboxylate]	0	1 (1=0-20%)	1 (1=0-20%)	0	2 (2=21-40%)	0	1 (1=0-20%)	0	0	1 (1=0-20%)	2 (2=21-40%)	–	–	–	–	–	–	–
CCn1c(Cn2cc(C(=O)OC)cn2)cc(=O)c(C(=O)OC(C)(C)C)c1-c1ccc(Cl)c(Cl)c1 [Compound 61, tert-butyl 2-(3,4-dichlorophenyl)-1-ethyl-6-[(4-methoxycarbonyl-pyrazol-1-yl)methyl]-4-oxo-pyridine-3-carboxylate]	1 (1=0-20%)	0	1 (1=0-20%)	0	0	1 (1=0-20%)	1 (1=0-20%)	0	0	1 (1=0-20%)	0	–	–	–	–	–	–	–
CCn1c(Cn2ncc(Cl)c2C)cc(=O)c(C(=O)O)c1-c1ccc(Cl)c(Cl)c1 [Compound 88, 6-[(4-chloro-5-methyl-pyrazol-1-yl)methyl]-2-(3,4-dichlorophenyl)-1-ethyl-4-oxo-pyridine-3-carboxylic acid]	2 (2=21-40%)	2 (2=21-40%)	–	3 (3=41-60%)	2 (2=21-40%)	1 (1=0-20%)	–	1 (1=0-20%)	2 (2=21-40%)	4 (4=61-80%)	2 (2=21-40%)	3 (3=41-60%)	3 (3=41-60%)	0	1 (1=0-20%)	1 (1=0-20%)	0	2 (2=21-40%)
